Data from PMC12562379, “Facile Synthesis of N-vinylindoles via Knoevenagel Condensation: Molecular Features and Biological Activities” (International Journal of Molecular Sciences, 2025).
Values after ≈ are worked out from the molar mass of the structure shown. Read-outs that look alike come from different tables or passages of the source.

Legend:
C. glabrata ATCC 2001 = assay: Microbroth dilution assay; type: cell-based, Candida glabrata; conditions: Nakaseomyces glabratus, ATCC2001
Experimental: (§1) The minimum inhibitory concentration (MIC) and minimum bactericidal/fungicidal concentration (MBC/MFC) of the tested compounds were determined by the microbroth dilution technique using 96-well plates based on the methodology described in the EUCAST (European Committee on Antimicrobial Susceptibility Testing) standards. Reference and clinical strains of Gram-positive (Staphylococcus aureus ATCC 6538, Staphylococuccus aureus MRSA 6347) and Gram-negative (Escherichia coli ATCC 8739) bacteria, and yeast (Candida albicans ATCC 10231, Candida glabrata ATCC 2001) were used for the assay. The studies were carried out in the Mueller–Hinton (MH) broth for bacteria and RPMI 1640 broth + MOPS (Sigma-Aldrich, Poland) buffer in the case of yeast. The dry test samples were dissolved in DMSO (dimethyl sulfoxide), resulting in a final concentration of 15 mg/mL, and then diluted in a geometric progression. Ampicillin (Sigma-Aldrich, Poland) acted as a control sample (512 to 4 µg/mL) for bacteria and ketoconazole (128 to 1 µg/mL) (Sigma-Aldrich, Poland) acted as a control sample for yeast. The cultures of microorganisms were prepared by transferring cells from the stock cultures to tubes with the appropriate broth and incubated with agitation in an aerobic atmosphere for 18 ± 2 h at 35 ± 1 °C; next, they were diluted to achieve an optical density corresponding to 5 × 105 (bacteria) or 2 × 105 (yeast) colony-forming units per mL (cfu/mL). An appropriate media (96 µL), along with the tested compounds with a final concentration range of 300–3.1 µg/mL (4 µL) and next microbial suspension (100 µL) were added to each well. Plates with samples were incubated in adequate conditions described above and microbial growth was assessed. […] (>90%; ketoconazole) but 50% (for other compounds) inhibits visible growth of yeasts. Next, as a control of microbial viability, 100 µL of the samples from each well without growth was inoculated on the MH or RPMI agar plates and incubated for 18 ± 2 h at 35 ± 1 °C and finally, the CFU was counted. The MBC/MFC was determined as the minimum concentration of compounds required to kill 99.9% the organisms.

AGS = assay: MTT assay, cytotoxic activity; type: cell-based, human; conditions: 24 h, n = 12; for IC50: Homo sapiens
Experimental: (§2) The human ovarian SKOV-3, gastric adenocarcinoma AGS, cervical HeLa cell lines and non-cancerous keratinocytes HaCaT were obtained from the American Type Culture Collection (ATCC, Manassas, VA, USA). The cell lines were cultured in McCoy’s Medium, Dulbecco’s Modified Eagle’s Medium/F12, and DMEM, respectively (Merck Millipore, Burlington, MA, USA). Penicillin (100 units/mL), streptomycin ([…]), and 10% (v/v) fetal bovine serum (FBS) were added to all the media. The cells were incubated at 37 °C and 5% CO2.
(§3) To estimate the cytotoxic activity of the obtained compounds 2a-i, MTT assay was used. The cells (5 × 10^3 cells/well) were treated with the compounds in a range of concentrations 1–150 µg/mL. […] After 24 h, MTT solution (0.5 mg/mL) was added to the cells. Formazan crystals were dissolved in DMSO and the absorbance was measured with a microtiter plate reader (Epoch, BioTek Instruments, Winooski, VT, USA).

HeLa = assay: MTT assay, cytotoxic activity; type: cell-based, human; conditions: 24 h, n = 12; for IC50: Homo sapiens
Experimental: as §2, §3

SKOV-3 = assay: MTT assay, cytotoxic activity; type: cell-based, human; conditions: SKOV-3, MTT, 24 h, n = 12; for IC50: Homo sapiens, SK-OV-3
Experimental: as §2, §3

[1] = tested on: HeLa, SKOV-3, AGS (and HaCaT) cell lines; assay: MTT assay, ranges stated over several cell lines; type: cell-based, human; conditions: for IC50: Homo sapiens
Experimental: as §2, §3

S. aureus ATCC 6535 = assay: Microbroth dilution assay; type: cell-based; conditions: Staphylococcus aureus, ATCC6535
C. albicans ATCC 10231 = assay: Microbroth dilution assay; type: cell-based, Candida albicans; conditions: Candida albicans, ATCC10231, C. albicans ATCC 10231; for MFC: read-out: MFC; for MIC: read-out: MIC
Experimental: as §1

S. aureus MRSA 12673 = assay: Microbroth dilution assay; type: cell-based; conditions: Staphylococcus aureus
HaCaT = assay: MTT assay, cytotoxic activity on non-cancerous keratinocytes; type: cell-based; conditions: Homo sapiens, 24 h, n = 12
Experimental: as §2, §3

[2] = target: T1, AGE2-BSA/sRAGE interaction (Homo sapiens, UniProt Q15109); assay: ELISA AGE2-BSA/sRAGE inhibitory screening; type: binding; conditions: for Inhibition (%) of AGE2-BSA/sRAGE interaction: 100 µM
T1 construct: purchased Creative BioMart
Experimental: The in vitro inhibitor screening of AGE2 (glyceraldehyde-modified AGE)-sRAGE interaction (soluble RAGE) was performed using a 96-well AGE-BSA-coated plate (Creative BioMart® ELISA kit, Shirley, NY, USA), according to the manufacturer’s instructions. 100 UA/mL soluble RAGE (sRAGE) was incubated with 100 μM of the tested compounds or 0.05% DMSO as a negative control on an AGE2-BSA-coated plate at room temperature for 60 min, shaking at 300 rpm on an orbital microplate shaker. After incubation, the wells were washed 4 times with wash buffer and horseradish peroxidase (HRP)-labeled anti-RAGE antibody was added and the plate was further incubated at room temperature for 60 min, shaking at 300 rpm on an orbital microplate shaker. After incubation, the wells were washed 4 times with wash buffer and the Substrate Reagent was added to each well. After an incubation at room temperature for 5 min, the HRP-labeled antibody sRAGE-AGE complex was then detected by measuring the absorbance at 450 nm using the microplate reader Varioskan (Thermo Fischer Scientific). These experiments were repeated two times.

E. coli ATCC 8739 = assay: Microbroth dilution assay; type: cell-based; conditions: Escherichia coli, ATCC8739
Experimental: as §1

[3] = tested on: S. aureus ATCC 6535, S. aureus MRSA 12673 and other tested bacterial and yeast strains; assay: Microbroth dilution assay, ranges stated over several strains; type: cell-based; conditions: all tested microorganisms
[4] = range over the cancer cell lines HeLa, SKOV-3 and AGS
[5] = S. aureus MRSA 12673, read-out: MIC
[6] = E. coli ATCC 8739, read-out: MIC
[7] = range over HeLa and SKOV-3 cell lines

T1 sequence (Q15109 23-342 limits assumed): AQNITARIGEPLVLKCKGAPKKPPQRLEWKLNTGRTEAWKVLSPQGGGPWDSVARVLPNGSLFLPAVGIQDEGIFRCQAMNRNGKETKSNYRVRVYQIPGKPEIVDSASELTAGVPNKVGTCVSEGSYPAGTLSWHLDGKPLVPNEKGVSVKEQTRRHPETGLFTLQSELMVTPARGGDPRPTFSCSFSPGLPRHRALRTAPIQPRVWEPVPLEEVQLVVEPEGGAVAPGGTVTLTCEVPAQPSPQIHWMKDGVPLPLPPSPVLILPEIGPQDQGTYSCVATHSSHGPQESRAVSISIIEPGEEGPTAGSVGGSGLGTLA

SMILES | MFC (C. glabrata ATCC 2001) [µg/mL] | MIC (C. glabrata ATCC 2001) [µg/mL] | IC50 (AGS) [µg/mL] | IC50 (HeLa) [µg/mL] | IC50 (SKOV-3) [µg/mL] | IC50 [1, 4] [µg/mL] | MBC (S. aureus ATCC 6535) [µg/mL] | MIC (S. aureus ATCC 6535) [µg/mL] | MFC (C. albicans ATCC 10231) [µg/mL] | MIC (C. albicans ATCC 10231) [µg/mL] | MBC (S. aureus MRSA 12673; S. aureus MRSA 12673) [µg/mL] | MIC (S. aureus MRSA 12673; [5]) [µg/mL] | IC50 (HaCaT) [µg/mL] | Inhibition (%) of AGE2-BSA/sRAGE interaction [2] | MBC (E. coli ATCC 8739; E. coli ATCC 8739) [µg/mL] | MIC (E. coli ATCC 8739; [6]) [µg/mL] | inhibition at 100 µM [2] [%] | IC50 [1, 7] [µg/mL] | also measured
Cc1ccc(/C=C(/C2=NCCN2)n2ccc3ccccc32)cc1 [Compound 2b, (Z)-1-[1-(4,5-dihydro-1H-imidazol-2-yl)-2-(p-tolyl)vinyl]-1H-indole] | > 220 | 220 (≈ 730 µM) | 16.2 ± 1.2 (≈ 53.8 µM) | 8.19 ± 0.4 (≈ 27.2 µM) | 9.69 ± 0.62 (≈ 32.2 µM) | 8.19 to 16.2 (≈ 27.2 to 53.8 µM) | 110 (≈ 365 µM) | 55 (≈ 182 µM) | > 220 | 220 (≈ 730 µM) | > 220 | 220 (≈ 730 µM) | 12.1 ± 0.55 (≈ 40.1 µM) | devoid of activity and lack | > 220 | 220 (≈ 730 µM) |  |  | 
C(=C(\C1=NCCN1)n1ccc2ccccc21)/c1cccc2ccccc12 [Compound 2h, (Z)-1-[1-(4,5-dihydro-1H-imidazol-2-yl)-2-(naphthalen-1-yl)vinyl]-1H-indole] | 240 (≈ 711 µM) | 240 (≈ 711 µM) | 18.9 ± 1.81 (≈ 56 µM) | 10.1 ± 1.12 (≈ 29.9 µM) | 10.39 ± 0.1 (≈ 30.8 µM) | 10.1 to 18.9 (≈ 29.9 to 56 µM) | 240 (≈ 711 µM) | 120 (≈ 356 µM) | > 240 | > 240 | 240 (≈ 711 µM) | 120 (≈ 356 µM) | 17.9 ± 1.93 (≈ 53.2 µM) | 36.3% | > 240 | > 240 | 36.4 |  | MBC/MFC [3]: ≥ 240 µg/mL
Brc1ccc(/C=C(/C2=NCCN2)n2ccc3ccccc32)cc1 [Compound 2f, (Z)-1-[2-(4-bromophenyl)-1-(4,5-dihydro-1H-imidazol-2-yl)vinyl]-1H-indole] | 220 (≈ 601 µM) | 220 (≈ 601 µM) | 11.1 ± 1.24 (≈ 30.4 µM) | 2.37 ± 0.15 (≈ 6.47 µM) | 2.76 ± 0.18 (≈ 7.54 µM) | 2.37 to 11.1 (≈ 6.47 to 30.4 µM) | 55 (≈ 150 µM) | 27.5 (≈ 75.1 µM) | 110 (≈ 300 µM) | 110 (≈ 300 µM) | 110 (≈ 300 µM) | 55 (≈ 150 µM) | 3.13 ± 0.09 (≈ 8.55 µM) |  | 110 (≈ 300 µM) | 110 (≈ 300 µM) | 46.6 | 2.37 to 2.76 (≈ 6.47 to 7.54 µM) | 
O=C1[O][Pt]2([NH][C@@H]3CCCC[C@H]3[NH]2)[O]C1=O [Oxaliplatin, reference compound] |  |  |  |  |  |  |  |  |  |  |  |  |  |  |  |  |  |  | IC50 ± SD (AGS): 17.90 ± 1.20 µg/mL; IC50 ± SD (HeLa): 35.76 ± 1.72 µg/mL; IC50 ± SD (SKOV-3): 102.16 ± 9.26 µg/mL; IC50 (range over cell lines) [1, 7]: 35.76 to 102.16 µg/mL
Clc1ccc(/C=C(/C2=NCCN2)n2ccc3ccccc32)cc1 [Compound 2e, (Z)-1-[2-(4-chlorophenyl)-1-(4,5-dihydro-1H-imidazol-2-yl)vinyl]-1H-indole] | 240 (≈ 746 µM) | 240 (≈ 746 µM) | 11.4 ± 0.74 (≈ 35.3 µM) | 3.13 ± 0.3 (≈ 9.73 µM) | 4.4 ± 0.16 (≈ 13.7 µM) |  | 60 (≈ 186 µM) | 30 (≈ 93.2 µM) | 240 (≈ 746 µM) | 120 (≈ 373 µM) | 240 (≈ 746 µM) | 60 (≈ 186 µM) | 3.43 ± 0.05 (≈ 10.7 µM) |  | 240 (≈ 746 µM) | 120 (≈ 373 µM) | 34.7 | 3.13 to 4.4 (≈ 9.73 to 13.7 µM) | 
CC1(C)S[C@@H]2[C@H](NC(=O)[C@H](N)c3ccccc3)C(=O)N2[C@H]1C(=O)O [Ampicillin, reference compound] |  |  |  |  |  |  | 8 (≈ 22.9 µM) | 8 (≈ 22.9 µM) |  |  | 512 (≈ 1470 µM) |  |  |  | 128 (≈ 366 µM) |  |  |  | MIC (S. aureus MRSA 12673; MRSA): 512 µg/mL (≈ 1470 µM); MIC (E. coli ATCC 8739): 128 µg/mL (≈ 366 µM)
